The source made the active and inactive calls. No cut-off for these calls is given here.
Experiments:
[1] = target: Sodium-dependent serotonin transporter (Homo sapiens, UniProt P31645); assay: Inhibition of SERT receptor (unknown origin)
[2] = Oral bioavailability in human at 2.5 to […]; type: ADME, organism-based; settings: in vivo, dose lower 2.5 mg/kg
[3] = Half life in Beagle dog at 1 mg/kg, iv measured upto 24 hrs by LC-MS/MS analysis; type: ADME, organism-based, Canis lupus familiaris; settings: in vivo
[4] = Clearance in Beagle dog at 1 mg/kg, iv measured upto 24 hrs by LC-MS/MS analysis; type: ADME, organism-based, Canis lupus familiaris; settings: in vivo
[5] = Drug concentration in Sprague-Dawley rat plasma at 10 mg/kg, ip measured at 120 min by LC/MS-MS analysis; type: ADME, organism-based
[6] = Drug concentration in Sprague-Dawley rat plasma at 10 mg/kg, ip measured at 60 min by LC/MS-MS analysis; type: ADME, organism-based
[7] = Ratio of drug concentration in brain to plasma in Sprague-Dawley rat at 10 mg/kg, ip measured at 60 min by LC-MS/MS analysis; type: ADME, organism-based; settings: read-out: BPR
[8] = Half life in Beagle dog at 5 mg/kg, po measured upto 24 hrs by LC-MS/MS analysis; type: ADME, organism-based, Canis lupus familiaris; settings: in vivo
Rattus norvegicus [9] = assay: Antidepressant activity in ip dosed Sprague-Dawley rat assessed as reduction in immobility time measured after 15 mins by forced swim test; type: functional, organism-based; settings: dose 3-10 mg/kg
[10] = Drug concentration in Sprague-Dawley rat plasma at 10 mg/kg, ip measured at 15 min by LC/MS-MS analysis; type: ADME, organism-based
[11] = Drug concentration in Sprague-Dawley rat brain at 10 mg/kg, ip measured at 60 min by LC/MS-MS analysis; type: ADME, organism-based; settings: read-out: Ct
[12] = Cmax in Sprague-Dawley rat at 1 mg/kg, iv measured upto 24 hrs by LC-MS/MS analysis; type: ADME, organism-based; set-up: time < 24 hrs, dose 1 mg/kg, route iv; settings: in vivo
[13] = Clearance in Sprague-Dawley rat at 1 mg/kg, iv measured upto 24 hrs by LC-MS/MS analysis; type: ADME, organism-based; settings: in vivo; for CL: iv, 1 mg/kg, 24 h
[14] = Ratio of drug concentration in brain to plasma in Sprague-Dawley rat at 10 mg/kg, ip measured at 15 min by LC-MS/MS analysis; type: ADME, organism-based; settings: read-out: BPR
Rattus norvegicus [15] = assay: Antidepressant activity in Sprague-Dawley rat assessed as reduction in immobility time at 10 mg/kg ip measured after 15 mins by forced swim test; type: functional; settings: 0.25 h
[16] = Half life in Sprague-Dawley rat at 2.5 mg/kg, po measured upto 24 hrs by LC-MS/MS analysis; type: ADME, organism-based; settings: in vivo
[17] = Half life in Sprague-Dawley rat at 1 mg/kg, iv measured upto 24 hrs by LC-MS/MS analysis; type: ADME, organism-based; settings: in vivo
[18] = AUC (0 to t) in Beagle dog at 5 mg/kg, po measured upto 24 hrs by LC-MS/MS analysis; type: ADME, organism-based, Canis lupus familiaris; set-up: dose 5 mg/kg, time < 24 hrs, route po; settings: in vivo
[19] = Cmax in Beagle dog at 5 mg/kg, po measured upto 24 hrs by LC-MS/MS analysis; type: ADME, organism-based, Canis lupus familiaris; set-up: time < 24 hrs, dose 5 mg/kg, route po; settings: in vivo
[20] = Drug concentration in Sprague-Dawley rat brain at 10 mg/kg, ip measured at 120 min by LC/MS-MS analysis; type: ADME, organism-based; settings: read-out: Ct
Hypothalamus [21] = assay: Inhibition of PCA-induced serotonin depletion in Sprague-Dawley rat hypothalamus assessed as recovery of 5-HT concentration at 10 mg/kg, ip by HPLC analysis (Rvb= 200 ng/g); type: functional
[22] = Oral bioavailability in Sprague-Dawley rat at 5 mg/kg measured upto 24 hrs by LC-MS/MS analysis; type: ADME, organism-based; settings: in vivo
[23] = Volume of distribution at steady state in Sprague-Dawley rat at 1 mg/kg, iv measured upto 24 hrs by LC-MS/MS analysis; type: ADME, organism-based; settings: in vivo, read-out: Vdss
[24] = AUC (0 to t) in Sprague-Dawley rat at 2.5 mg/kg, po measured upto 24 hrs by LC-MS/MS analysis; type: ADME, organism-based; set-up: dose 2.5 mg/kg, time < 24 hrs, route po; settings: in vivo
[25] = Volume of distribution at steady state in Beagle dog at 1 mg/kg, iv measured upto 24 hrs by LC-MS/MS analysis; type: ADME, organism-based, Canis lupus familiaris; settings: in vivo, read-out: Vdss
[26] = Ratio of drug concentration in brain to plasma in Sprague-Dawley rat at 10 mg/kg, ip measured at 120 min by LC-MS/MS analysis; type: ADME, organism-based; settings: read-out: BPR
[27] = Cmax in Sprague-Dawley rat at 2.5 mg/kg, po measured upto 24 hrs by LC-MS/MS analysis; type: ADME, organism-based; set-up: dose 2.5 mg/kg, time < 24 hrs, route po; settings: in vivo
[28] = Drug concentration in Sprague-Dawley rat brain at 10 mg/kg, ip measured at 15 min by LC/MS-MS analysis; type: ADME, organism-based; settings: read-out: Ct
[29] = AUC (0 to t) in Sprague-Dawley rat at 1 mg/kg, iv measured upto 24 hrs by LC-MS/MS analysis; type: ADME, organism-based; set-up: time < 24 hrs, dose 1 mg/kg, route iv; settings: in vivo; for AUCt: 24 h
[30] = AUC (0 to t) in Beagle dog at 1 mg/kg, iv measured upto 24 hrs by LC-MS/MS analysis; type: ADME, organism-based, Canis lupus familiaris; set-up: dose 1 mg/kg, time < 24 hrs, route iv; settings: in vivo
Hypothalamus [31] = assay: Inhibition of PCA-induced serotonin depletion in Sprague-Dawley rat hypothalamus assessed as recovery of 5-HT concentration at 1 mg/kg, ip by HPLC analysis; type: functional, organism-based
[32] = Cmax in Beagle dog at 1 mg/kg, iv measured upto 24 hrs by LC-MS/MS analysis; type: ADME, organism-based, Canis lupus familiaris; set-up: dose 1 mg/kg, time < 24 hrs, route iv; settings: in vivo
[33] = Oral bioavailability in Sprague-Dawley rat at 2.5 mg/kg measured upto 24 hrs by LC-MS/MS analysis; type: ADME, organism-based; settings: in vivo
Hypothalamus [34] = assay: Inhibition of PCA-induced serotonin depletion in Sprague-Dawley rat hypothalamus assessed as recovery of 5-HT concentration at 3 mg/kg, ip by HPLC analysis; type: functional, organism-based
Rattus norvegicus [35] = assay: Antidepressant activity in Sprague-Dawley rat assessed as reduction in immobility time at 3 mg/kg ip measured after 15 mins by forced swim test; type: functional; settings: 0.25 h

Chain of Sodium-dependent serotonin transporter (P31645 whole entry): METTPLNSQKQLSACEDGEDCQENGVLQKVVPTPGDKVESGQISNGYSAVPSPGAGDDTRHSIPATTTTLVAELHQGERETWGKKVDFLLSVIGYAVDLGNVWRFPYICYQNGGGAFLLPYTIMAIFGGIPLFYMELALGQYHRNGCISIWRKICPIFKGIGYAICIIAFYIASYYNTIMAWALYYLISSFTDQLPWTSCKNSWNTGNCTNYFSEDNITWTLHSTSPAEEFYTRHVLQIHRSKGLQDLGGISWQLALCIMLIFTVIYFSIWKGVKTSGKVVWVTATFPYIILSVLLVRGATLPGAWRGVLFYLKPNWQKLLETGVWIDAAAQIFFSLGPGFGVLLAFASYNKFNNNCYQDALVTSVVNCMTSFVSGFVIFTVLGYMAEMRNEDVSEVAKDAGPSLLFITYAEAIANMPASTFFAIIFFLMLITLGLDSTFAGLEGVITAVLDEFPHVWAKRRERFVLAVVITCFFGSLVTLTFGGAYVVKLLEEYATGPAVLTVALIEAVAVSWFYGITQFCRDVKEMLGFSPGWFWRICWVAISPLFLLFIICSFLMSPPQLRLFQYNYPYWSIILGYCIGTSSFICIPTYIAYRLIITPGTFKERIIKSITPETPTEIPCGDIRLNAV

Structure (SMILES)	IC50 [1]	half-life [3]	CL [4]	half-life [8]	Cmax [12]	CL [13]	half-life [16]	half-life [17]	AUC(0-t) at 24 h [18]	Cmax [19]	bioavailability [22]	Vd [23]	AUC(0-t) at 24 h [24]	Vd [25]	Cmax [27]	AUCt [29]	AUCt [30]	Cmax [32]	bioavailability [33]	other results
COc1cc(F)ccc1-c1cnc(N2CCN(CCCCc3c[nH]c4ccc(C#N)cc34)CC2)nc1	< 2 nM	–	–	–	–	–	–	–	–	–	–	–	–	–	–	–	–	–	–	–
Cc1ccc(Sc2ccccc2N2CCNCC2)c(C)c1 [VORTIOXETINE]	–	–	–	–	–	–	–	–	–	–	–	–	–	–	–	–	–	–	–	bioavailability [2]: 75%
N#Cc1ccc2[nH]cc(CCCCN3CCN(c4ncc(-c5ccc(F)cc5F)cn4)CC3)c2c1	0.58 nM	263 min	5.14 L/h/kg	984 min	193 ng/mL	11.6 L/h/kg	437 min	452 min	7540 ng·h/mL	794 ng/mL	53.5%	6.41 L/kg	2790 ng·h/mL	3.4 L/kg	180 ng/mL	1340 ng·h/mL	2820 ng·h/mL	520 ng/mL	83.3%	concentration at 2 h [5]: 935 ng/mL; concentration at 1 h [6]: 651 ng/mL; Kp at 1 h [7]: 3.45; Activity (Rattus norvegicus [9]): Dose-Dependent Effect; concentration at 0.25 h [10]: 253 ng/mL; concentration at 1 h [11]: 2240 ng/g; Kp at 0.25 h [14]: 1.82; Time (Rattus norvegicus [15]): <100 s; concentration at 2 h [20]: 2960 ng/g; Activity (Hypothalamus [21]): 500 ng/g; Kp at 2 h [26]: 3.17; concentration at 0.25 h [28]: 459 ng/g; Activity (Hypothalamus [31]): Active
N#Cc1ccc2[nH]cc(CCCCN3CCN(c4ncc(-c5ccc(Cl)cc5)cn4)CC3)c2c1	0.32 nM	1250 min	3.66 L/h/kg	942 min	444 ng/mL	7.5 L/h/kg	584 min	571 min	6800 ng·h/mL	820 ng/mL	47.8%	5.46 L/kg	2950 ng·h/mL	5.52 L/kg	207 ng/mL	1870 ng·h/mL	2840 ng·h/mL	536 ng/mL	52.6%	–
N#Cc1ccc2[nH]cc(CCCCN3CCN(c4ncc(-c5ccc(C(N)=O)cc5)cn4)CC3)c2c1	< 2 nM	–	–	–	–	–	–	–	–	–	–	–	–	–	–	–	–	–	–	–
N#Cc1ccc2[nH]cc(CCCCN3CCN(c4ncc(-c5ccc(F)cc5)cn4)CC3)c2c1	< 2 nM	–	–	–	–	–	–	–	–	–	–	–	–	–	–	–	–	–	–	–
N#Cc1ccc2[nH]cc(CCCCN3CCN(c4ncc(-c5cccc(C(N)=O)c5)cn4)CC3)c2c1	0.35 nM	281 min	7.11 L/h/kg	268 min	400 ng/mL	22.9 L/h/kg	117 min	95.4 min	4310 ng·h/mL	662 ng/mL	37.2%	2.33 L/kg	706 ng·h/mL	2.13 L/kg	241 ng/mL	722 ng·h/mL	2330 ng·h/mL	1100 ng/mL	39.2%	–
N#Cc1ccc2[nH]cc(CCCCN3CCN(c4ccc5oc(C(N)=O)cc5c4)CC3)c2c1 [VILAZODONE]	–	79.2 min	–	129 min	–	–	174 min	87 min	2020 ng·h/mL	454 ng/mL	52.5%	3.74 L/kg	443 ng·h/mL	2.14 L/kg	173 ng/mL	–	791 ng·h/mL	488 ng/mL	47.5%	concentration at 2 h [5]: 861 ng/mL; concentration at 1 h [6]: 1330 ng/mL; Kp at 1 h [7]: 0.46; concentration at 0.25 h [10]: 1330 ng/mL; concentration at 1 h [11]: 606 ng/g; Activity (Hypothalamus [34]): Active; clearance ([13]; Sprague-Dawley): 40.2 mL/min/kg; Kp at 0.25 h [14]: 0.56; concentration at 2 h [20]: 457 ng/g; Time (Rattus norvegicus [35]): 100 s; Activity (Hypothalamus [21]): 400 ng/g; Kp at 2 h [26]: 0.53; concentration at 0.25 h [28]: 190 ng/g; AUC(0-t) at 24 h ([29]; Sprague-Dawley): 409 ng·h/mL
COc1ccccc1-c1cnc(N2CCN(CCCCc3c[nH]c4ccc(C#N)cc34)CC2)nc1	< 2 nM	–	–	–	–	–	–	–	–	–	–	–	–	–	–	–	–	–	–	–

— ChEMBL document CHEMBL5316302, “Deciphering Nonbioavailable Substructures Improves the Bioavailability of Antidepressants by Serotonin Transporter” (J Med Chem, 2023)
